For the assay, the target named is EGFR (UniProt P00533).

The record followed here is the Kinase Knowledgebase extract (Sharma et al. 2016).

What is called IC50 is the concentration needed to halve the response being measured. Low readings indicate higher potency, high ones lower potency.

In brackets after ≈: the same amount, converted by molar mass. Bounds are passed on as bounds.

Sequence of EGFR (P00533 whole entry, looked up): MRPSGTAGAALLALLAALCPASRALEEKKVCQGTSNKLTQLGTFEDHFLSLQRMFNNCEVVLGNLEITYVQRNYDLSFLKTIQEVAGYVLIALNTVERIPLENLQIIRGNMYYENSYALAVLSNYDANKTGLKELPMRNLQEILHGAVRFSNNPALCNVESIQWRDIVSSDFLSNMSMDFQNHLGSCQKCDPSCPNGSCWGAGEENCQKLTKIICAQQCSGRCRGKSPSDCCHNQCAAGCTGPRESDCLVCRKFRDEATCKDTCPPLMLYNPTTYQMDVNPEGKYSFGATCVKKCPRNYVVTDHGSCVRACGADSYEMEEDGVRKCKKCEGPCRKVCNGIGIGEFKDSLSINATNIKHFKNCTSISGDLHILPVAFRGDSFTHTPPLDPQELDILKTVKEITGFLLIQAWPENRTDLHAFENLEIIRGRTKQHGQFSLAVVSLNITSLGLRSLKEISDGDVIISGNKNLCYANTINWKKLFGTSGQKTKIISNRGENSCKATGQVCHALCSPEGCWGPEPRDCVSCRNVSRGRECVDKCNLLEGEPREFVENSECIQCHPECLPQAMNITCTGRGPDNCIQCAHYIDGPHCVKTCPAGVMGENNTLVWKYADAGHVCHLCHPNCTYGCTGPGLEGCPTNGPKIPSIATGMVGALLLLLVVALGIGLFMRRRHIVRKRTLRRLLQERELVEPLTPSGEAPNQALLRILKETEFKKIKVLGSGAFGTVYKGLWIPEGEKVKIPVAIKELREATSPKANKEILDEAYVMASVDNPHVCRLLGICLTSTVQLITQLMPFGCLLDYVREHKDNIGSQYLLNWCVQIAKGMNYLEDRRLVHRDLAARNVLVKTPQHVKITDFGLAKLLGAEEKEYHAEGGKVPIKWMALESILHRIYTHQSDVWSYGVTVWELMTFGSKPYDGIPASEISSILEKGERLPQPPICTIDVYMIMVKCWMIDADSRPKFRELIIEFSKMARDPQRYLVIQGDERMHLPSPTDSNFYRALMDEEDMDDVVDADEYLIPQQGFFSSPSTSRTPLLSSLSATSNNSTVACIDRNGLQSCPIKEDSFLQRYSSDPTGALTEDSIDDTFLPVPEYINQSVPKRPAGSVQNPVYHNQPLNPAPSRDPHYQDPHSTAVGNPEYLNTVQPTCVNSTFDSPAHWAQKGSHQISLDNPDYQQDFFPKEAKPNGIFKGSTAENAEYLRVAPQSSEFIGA

For `COc1cc(Nc2ncnc(-n3c(NCc4ccc(Cl)cc4)nc4ccccc43)n2)cc(OC)c1OC`, the IC50 is above 4.5 µg/mL.
As for `COc1cc(Nc2ncnc(-n3c(Nc4ccccc4C(N)=O)nc4ccccc43)n2)cc(OC)c1OC`, the figure is above 4.5 µg/mL; as for `O=C(O)CCNC(=O)c1ccc(Nc2ncnc(Nc3cc(-c4ccco4)[nH]n3)n2)cc1`, 0.4 to 2.4 µg/mL (≈ 0.921 to 5.52 µM).
As for `CN(c1cccc(Cl)c1)c1ncnc(N(C)c2cccc(Cl)c2)n1`, the figure is 0.4 to 2.4 µg/mL (≈ 1.11 to 6.66 µM); as for `c1coc(-c2cc(Nc3ncnc(Nc4ccc(N5CCOCC5)cc4)n3)[nH]n2)c1`, 2.4 to 3.5 µg/mL (≈ 5.93 to 8.65 µM).
In turn, `CNc1ncnc(Nc2cc(OC)c(OC)c(OC)c2)n1` gave an IC50 above 4.5 µg/mL.
Compound `COc1cc(Nc2ncnc(N(C)c3cccc(Cl)c3)n2)cc(OC)c1OC` displayed an IC50 below 0.4 µg/mL.
The compound `COc1cc(Nc2ncnc(Nc3cccc(Cl)c3)n2)cc(OC)c1` yielded an IC50 below 0.4 µg/mL.
`O=c1[nH]c2ccccc2n1-c1ncnc(Nc2ccccc2)n1` came in with an IC50 above 4.5 µg/mL.
Next, `COc1cc(Nc2ncnc(-n3c(Nc4ccc(OC(F)(F)F)cc4)nc4ccccc43)n2)cc(OC)c1OC`: 2.4 to 3.5 µg/mL (≈ 4.34 to 6.32 µM).
Next, `CN(c1cccc(Br)c1)c1ncnc(Nc2cccc(Cc3nnn[nH]3)c2)n1`: below 0.4 µg/mL; `CCOC(=O)Cc1ccc(Nc2ncnc(Nc3cc(-c4ccco4)n[nH]3)n2)cc1`: 0.4 to 2.4 µg/mL (≈ 0.987 to 5.92 µM); `Nc1ncnc(Nc2cccc(C(F)(F)F)c2)n1`: above 4.5 µg/mL.
Next, `Cc1cccc(Nc2ncnc(Nc3cccc(Br)c3)n2)c1`: below 0.4 µg/mL; `COc1cc(Nc2ncnc(-n3c(NC(CCO)c4ccccc4)nc4ccccc43)n2)cc(OC)c1OC` (stereo unspecified): above 4.5 µg/mL; `COc1ccc(Nc2ncnc(Nc3cc(OC)c(OC)c(OC)c3)n2)cc1O`: below 0.4 µg/mL.
In turn, `COc1cc(Nc2ncnc(-c3cccnc3Cl)n2)cc(OC)c1OC` yielded an IC50 above 4.5 µg/mL.
As for `COc1cc(Nc2ncnc(Nc3ccc(Br)cc3)n2)cc(OC)c1OC`, the figure is 0.4 to 2.4 µg/mL (≈ 0.925 to 5.55 µM); as for `COc1cc(Nc2ncnc(Nc3cc(-c4cccc(Cl)c4)n[nH]3)n2)cc(OC)c1OC`, 0.4 to 2.4 µg/mL (≈ 0.881 to 5.29 µM); as for `COc1cc(Nc2ncnc(-n3c(Nc4ccccc4)nc4ccccc43)n2)cc(OC)c1OC`, above 4.5 µg/mL.
With `C=CCNC(=O)c1ccc(-c2cc(Nc3ncnc(Nc4cc(OC)c(OC)c(OC)c4)n3)[nH]n2)cc1`, the IC50 is above 4.5 µg/mL.
Next, `COc1cc(Nc2ncnc(-n3c(Nc4ccc(N(C)C)cc4)nc4ccccc43)n2)cc(OC)c1OC`: above 4.5 µg/mL.
For `c1ccc(Cn2ncc3cc(Nc4ncnc(NCc5ccco5)n4)ccc32)cc1`, the IC50 is 0.4 to 2.4 µg/mL (≈ 1.01 to 6.04 µM).
Next, `COc1cc(Nc2ncnc(-n3c(NCc4ccc(C(F)(F)F)cc4)nc4ccccc43)n2)cc(OC)c1OC`: above 4.5 µg/mL.
For the compound `COc1cc(Nc2ncnc(Nc3ccc(C)cc3)n2)cc(OC)c1OC`, the IC50 was below 0.4 µg/mL.
As for `COC(=O)c1ccc(-c2cc(Nc3ncnc(NCCCO)n3)[nH]n2)cc1`, the figure is above 4.5 µg/mL.
As for `COc1cc(Nc2ncnc(-n3ncc4ccccc43)n2)cc(OC)c1OC`, the figure is above 4.5 µg/mL.
`CN(c1cccc(Cl)c1)c1ncnc(Nc2cccc(Cc3nnn[nH]3)c2)n1`: the IC50 is below 0.4 µg/mL.
Next, `CN(c1cccc(Cl)c1)c1ncnc(NC2CCN(Cc3ccccc3)CC2)n1`: 0.4 to 2.4 µg/mL (≈ 0.978 to 5.87 µM); `COc1cc(Nc2ncnc(N3CCc4ccccc4C3)n2)cc(OC)c1OC`: above 4.5 µg/mL; `Nc1nc2ccccc2n1-c1ncnc(Nc2cccc(Cl)c2)n1`: 0.4 to 2.4 µg/mL (≈ 1.18 to 7.11 µM).
As for `Cc1ccc2c(c1)CCCN2c1ncnc(Nc2ccc3c(c2)C(=O)OC3)n1`, the figure is below 0.4 µg/mL.
Next, `COc1cc(Nc2ncnc(-c3cccnc3NCCCN)n2)cc(OC)c1OC`: above 4.5 µg/mL; `COc1cc(Nc2ncnc(Nc3cccc(O)c3)n2)cc(OC)c1OC`: below 0.4 µg/mL; `C=CCNc1nc2ccccc2n1-c1ncnc(Nc2cc(OC)c(OC)c(OC)c2)n1`: above 4.5 µg/mL.
`COc1cc(Nc2ncnc(N(C)c3ccc4c(cnn4Cc4ccccc4)c3)n2)cc(OC)c1OC` returned an IC50 below 0.4 µg/mL.
As for `COc1cc(Nc2ncnc(-c3cccnc3NC3CCc4ccccc43)n2)cc(OC)c1OC` (stereo unspecified), the figure is 2.4 to 3.5 µg/mL (≈ 5.1 to 7.44 µM); as for `COc1cc(Nc2ncnc(N3c4ccccc4CC3C)n2)cc(OC)c1OC` (stereo unspecified), 0.4 to 2.4 µg/mL (≈ 1.02 to 6.1 µM).
As for `COc1cc(Nc2ncnc(Nc3ccc(N)cc3)n2)cc(OC)c1OC`, the figure is 0.4 to 2.4 µg/mL (≈ 1.09 to 6.51 µM).
Next, `CN(c1cccc(Cl)c1)c1ncnc(Nc2ccc(OCCO)cc2)n1`: below 0.4 µg/mL.
The compound `c1ccc(-c2cc(Nc3ncnc(Nc4ccc5[nH]ncc5c4)n3)[nH]n2)cc1` gave an IC50 of 0.4 to 2.4 µg/mL (≈ 1.08 to 6.5 µM).
Next, `COc1cc(Nc2ncnc(-n3c(Nc4ccc5[nH]ncc5c4)nc4ccccc43)n2)cc(OC)c1OC`: 3.5 to 4.5 µg/mL (≈ 6.87 to 8.83 µM).
Regarding `COc1ccc(Nc2ncnc(Nc3ccc(N(C)C)cc3)n2)cc1OC`, the IC50 is above 4.5 µg/mL.
Next, `COc1cc(CNc2ncnc(N(C)c3cccc(Cl)c3)n2)cc(OC)c1OC`: 2.4 to 3.5 µg/mL (≈ 5.77 to 8.42 µM).
Next, `Clc1cc(Nc2ncnc(Nc3ccc4c(cnn4Cc4ccccc4)c3)n2)cc(Cl)c1Cl`: 0.4 to 2.4 µg/mL (≈ 0.805 to 4.83 µM); `COC(=O)c1ccc(-c2cc(Nc3ncnc(NCc4cccs4)n3)[nH]n2)cc1`: 2.4 to 3.5 µg/mL (≈ 5.89 to 8.59 µM).
